Test results taken from ChEMBL document CHEMBL3045653, “A novel amino acid substitution Ala-122-Tyr in ALS confers high-level and broad resistance across ALS-inhibiting herbicides” (Pest Manag Sci, 2012).
Activity calls are given as the source filed them. The calls are words filed in the database; no cut-off is given here.

Tests used:
Raphanus raphanistrum [1] = assay: Herbicidal activity against two to three leaf stage ALS-herbicide-resistant Raphanus raphanistrum WARR30 (wild radish) expressing ALS Ala122Tyr mutant assessed as reduction in survival measured 3 weeks after compound treatment; format: functional
Raphanus raphanistrum [2] = assay: Herbicidal activity against two to three leaf stage ALS-herbicide-susceptible Raphanus raphanistrum WARR7 (wild radish) assessed as reduction in dry weight of above-ground biomass measured 3 weeks after compound treatment; format: functional
Raphanus raphanistrum [3] = assay: Resistance index, ratio of I50 for ALS Ala122Tyr mutant in ALS-herbicide-resistant Raphanus raphanistrum WARR30 (wild radish) expressing ALS Ala122Tyr mutant to I50 for ALS-herbicide-susceptible Raphanus raphanistrum (wild radish)
Raphanus raphanistrum [4] = assay: Herbicidal activity against two to three leaf stage ALS-herbicide-resistant Raphanus raphanistrum WARR30 (wild radish) expressing ALS Ala122Tyr mutant assessed as reduction in dry weight of above-ground biomass measured 3 weeks after compound treatment; format: functional
Acetolactate synthase [5] = biological target: Acetolactate synthase (Raphanus raphanistrum, UniProt J7HAW4, A122Y); assay: Inhibition of ALS Ala122Tyr mutant in ALS-herbicide-resistant Raphanus raphanistrum WARR30 (wild radish) expressing ALS Ala122Tyr mutant; conditions: read-out: I50
Acetolactate synthase [6] = biological target: T1, Acetolactate synthase (Raphanus raphanistrum, UniProt J7HAW4); assay: Inhibition of ALS in ALS-herbicide-susceptible Raphanus raphanistrum […] (wild radish); conditions: pooled result: one value given for 2 cell lines, strains, targets or settings; read-out: I50
T1 sequence (J7HAW4 whole entry): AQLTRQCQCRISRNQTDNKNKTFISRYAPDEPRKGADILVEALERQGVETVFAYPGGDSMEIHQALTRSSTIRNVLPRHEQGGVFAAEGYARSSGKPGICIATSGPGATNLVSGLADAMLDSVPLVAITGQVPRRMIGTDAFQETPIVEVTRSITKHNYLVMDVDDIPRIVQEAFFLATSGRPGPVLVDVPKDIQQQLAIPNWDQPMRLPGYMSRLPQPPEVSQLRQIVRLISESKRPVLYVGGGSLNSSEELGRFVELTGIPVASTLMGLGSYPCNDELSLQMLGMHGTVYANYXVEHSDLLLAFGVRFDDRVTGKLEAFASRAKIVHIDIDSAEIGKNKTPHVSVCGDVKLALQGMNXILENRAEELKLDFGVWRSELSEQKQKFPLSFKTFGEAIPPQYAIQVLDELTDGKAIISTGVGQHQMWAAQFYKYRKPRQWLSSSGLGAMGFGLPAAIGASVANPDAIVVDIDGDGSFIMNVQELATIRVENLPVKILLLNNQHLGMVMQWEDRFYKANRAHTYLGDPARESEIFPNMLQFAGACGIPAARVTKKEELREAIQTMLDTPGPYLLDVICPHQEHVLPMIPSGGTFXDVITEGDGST

Raphanus raphanistrum [7] = assay: Herbicidal activity against two to three leaf stage ALS-herbicide-susceptible Raphanus raphanistrum WARR7 (wild radish) assessed as reduction in survival measured 3 weeks after compound treatment; format: functional
Raphanus raphanistrum [8] = assay: Herbicidal activity against two to three-leaf stage ALS-herbicide-susceptible Raphanus raphanistrum WARR7 (wild radish) assessed as reduction in survival at 0.625 g/ha measured 3 weeks after compound treatment; format: functional; conditions: WARR7, 504 h, read-out: GI
Raphanus raphanistrum [9] = assay: Herbicidal activity against two to three-leaf stage ALS-herbicide-resistant Raphanus raphanistrum WARR30 (wild radish) expressing ALS Ala122Tyr mutant assessed as reduction in survival at 20 g/ha measured 3 weeks after compound treatment; format: functional; conditions: WARR30, 504 h, read-out: GI
Raphanus raphanistrum [10] = assay: Herbicidal activity against two to three-leaf stage ALS-herbicide-resistant Raphanus raphanistrum WARR30 (wild radish) expressing ALS Ala122Tyr mutant assessed as reduction in survival at 640 g/ha measured 3 weeks after compound treatment; format: functional, organism-based
Raphanus raphanistrum [11] = assay: Herbicidal activity against two to three-leaf stage ALS-herbicide-resistant Raphanus raphanistrum WARR30 (wild radish) expressing ALS Ala122Tyr mutant assessed as reduction in survival at 1600 g/ha measured 3 weeks after compound treatment; format: functional; conditions: WARR30, 504 h, read-out: GI
Raphanus raphanistrum [12] = assay: Resistance index, ratio of LD50 for ALS-herbicide-resistant Raphanus raphanistrum WARR30 (wild radish) expressing ALS Ala122Tyr mutant to LD50 for ALS-herbicide-susceptible Raphanus raphanistrum (wild radish) WARR7; format: functional
Raphanus raphanistrum [13] = assay: Resistance index, ratio of GR50 for ALS-herbicide-resistant Raphanus raphanistrum WARR30 (wild radish) expressing ALS Ala122Tyr mutant to GR50 for ALS-herbicide-susceptible Raphanus raphanistrum (wild radish) WARR7; format: functional
Raphanus raphanistrum [14] = assay: Herbicidal activity against two to three-leaf stage ALS-herbicide-susceptible Raphanus raphanistrum WARR7 (wild radish) assessed as reduction in survival at 62 g/ha measured 3 weeks after compound treatment; format: functional, organism-based
Raphanus raphanistrum [15] = assay: Herbicidal activity against two to three-leaf stage ALS-herbicide-susceptible Raphanus raphanistrum WARR7 (wild radish) assessed as reduction in survival at 50 g/ha measured 3 weeks after compound treatment; format: functional, organism-based
Raphanus raphanistrum [16] = assay: Herbicidal activity against two to three-leaf stage ALS-herbicide-susceptible Raphanus raphanistrum WARR7 (wild radish) assessed as reduction in survival at 0.75 g/ha measured 3 weeks after compound treatment; format: functional; conditions: WARR7, 504 h, read-out: GI
Raphanus raphanistrum [17] = assay: Herbicidal activity against two to three-leaf stage ALS-herbicide-resistant Raphanus raphanistrum WARR30 (wild radish) expressing ALS Ala122Tyr mutant assessed as reduction in survival at 384 g/ha measured 3 weeks after compound treatment; format: functional; conditions: WARR30, 504 h, read-out: GI

## Cc1ccn2nc(S(=O)(=O)Nc3c(F)cccc3F)nc2n1
Raphanus raphanistrum [1]
  Activity: inactive
Raphanus raphanistrum [2]
  Activity: Active
Raphanus raphanistrum [3]
  Ratio: > 60
Raphanus raphanistrum [4]
  Activity: inactive
Acetolactate synthase [5]
  IC50: > 100 µM
Acetolactate synthase [6]
  IC50: 1.66 µM
Raphanus raphanistrum [7]
  Activity: Active

## COc1nc(C)nc(NC(=O)NS(=O)(=O)c2ccccc2Cl)n1 [CHLORSULFURON]
Raphanus raphanistrum [1]
  LD50: >640 g/ha
Raphanus raphanistrum [2]
  GR50: <0.625 g/ha
Raphanus raphanistrum [8]
  inhibition of growth at 0.625 g/ha: 72%
Raphanus raphanistrum [4]
  GR50: >640 g/ha
Raphanus raphanistrum [9]
  inhibition of growth at 20 g/ha: 15%
Raphanus raphanistrum [10]
  Activity: inactive
Raphanus raphanistrum [7]
  LD50: <0.625 g/ha

## COCc1cnc(C2=NC(C)(C(C)C)C(=O)N2)c(C(=O)O)c1 (centres undefined) [IMAZAMOX]
Raphanus raphanistrum [11]
  inhibition of growth at 1600 g/ha: 20%
Raphanus raphanistrum [1]
  LD50: >1600 g/ha
Raphanus raphanistrum [2]
  GR50: <6.3 g/ha
Raphanus raphanistrum [3]
  Ratio: > 21
Raphanus raphanistrum [12]
  Ratio: >137
Raphanus raphanistrum [4]
  GR50: >1600 g/ha
Raphanus raphanistrum [13]
  Ratio: >256
Acetolactate synthase [5]
  IC50: > 100 µM
Raphanus raphanistrum [14]
  Activity: Active
Acetolactate synthase [6]
  IC50: 4.78 µM
Raphanus raphanistrum [7]
  LD50: 11.7 g/ha

## CC(C)C1(C)N=C(c2ncccc2C(=O)O)NC1=O (centres undefined) [IMAZAPYR]
Raphanus raphanistrum [1]
  LD50: 1000 g/ha
Raphanus raphanistrum [2]
  GR50: <63 g/ha
Raphanus raphanistrum [3]
  Ratio: > 14.6
Raphanus raphanistrum [12]
  Ratio: >16
Raphanus raphanistrum [4]
  GR50: 486 g/ha
Raphanus raphanistrum [13]
  Ratio: >7.8
Raphanus raphanistrum [15]
  Activity: Active
Acetolactate synthase [5]
  IC50: > 100 µM
Acetolactate synthase [6]
  IC50: 6.84 µM
Raphanus raphanistrum [7]
  LD50: <63 g/ha

## CCc1cnc(C2=NC(C)(C(C)C)C(=O)N2)c(C(=O)O)c1 (centres undefined) [IMAZETHAPYR]
Raphanus raphanistrum [1]
  Activity: inactive
Raphanus raphanistrum [2]
  Activity: Active
Raphanus raphanistrum [3]
  Ratio: > 741
Raphanus raphanistrum [4]
  Activity: inactive
Acetolactate synthase [5]
  IC50: > 1000 µM
Acetolactate synthase [6]
  IC50: 1.35 µM
Raphanus raphanistrum [7]
  Activity: Active

## COc1cc(OC)n2nc(S(=O)(=O)Nc3c(Cl)ccc(C)c3Cl)nc2n1 [METOSULAM]
Raphanus raphanistrum [16]
  inhibition of growth at 0.75 g/ha: 95%
Raphanus raphanistrum [1]
  LD50: >384 g/ha
Raphanus raphanistrum [2]
  GR50: <0.75 g/ha
Raphanus raphanistrum [3]
  Ratio: > 94500
Raphanus raphanistrum [12]
  Ratio: >512
Raphanus raphanistrum [17]
  inhibition of growth at 384 g/ha: 10%
Raphanus raphanistrum [4]
  GR50: >384 g/ha
Raphanus raphanistrum [13]
  Ratio: >512
Acetolactate synthase [5]
  IC50: 94 µM
Acetolactate synthase [6]
  IC50: < 0.001 µM
Raphanus raphanistrum [7]
  LD50: <0.75 g/ha

## Cc1cc(C)nc(NC(=O)NS(=O)(=O)c2ccccc2C(=O)O)n1 [SULFOMETURON]
Raphanus raphanistrum [1]
  Activity: inactive
Raphanus raphanistrum [2]
  Activity: Active
Raphanus raphanistrum [3]
  Ratio: > 4350
Raphanus raphanistrum [4]
  Activity: inactive
Acetolactate synthase [5]
  IC50: > 100 µM
Raphanus raphanistrum [7]
  Activity: Active
